Experimental data reported in US7737127B2, “2-propynyl adenosine analogs having A2A agonist activity and compositions thereof” (University of Virginia Patent Foundation, priority 2001, dated 2010).
Like-named read-outs stand apart in the source and are kept apart here.

Key:
[1] = target: recombinant human A2A receptors (Homo sapiens, UniProt P29274); experiment: Radioligand competition binding to recombinant human A2A receptors in Sf9 cell membranes; details: Ki from competition binding, Sf9 cell membranes
recombinant human A2A receptors, sequence (P29274 whole entry): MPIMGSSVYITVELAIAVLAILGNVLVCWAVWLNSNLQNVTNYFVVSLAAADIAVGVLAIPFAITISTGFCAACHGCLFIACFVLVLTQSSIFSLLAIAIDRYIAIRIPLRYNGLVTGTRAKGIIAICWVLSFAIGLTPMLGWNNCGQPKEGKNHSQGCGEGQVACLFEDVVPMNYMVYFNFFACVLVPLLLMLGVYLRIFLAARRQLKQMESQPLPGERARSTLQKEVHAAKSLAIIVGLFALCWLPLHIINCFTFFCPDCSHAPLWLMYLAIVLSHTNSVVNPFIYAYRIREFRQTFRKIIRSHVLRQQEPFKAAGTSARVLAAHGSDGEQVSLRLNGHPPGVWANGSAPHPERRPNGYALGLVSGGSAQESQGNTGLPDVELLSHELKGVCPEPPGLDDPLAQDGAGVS

[2] = target: T1, A3 AR (Homo sapiens, UniProt P0DMS8); experiment: Radioligand competition binding (125I-ABA) to human A3 AR in HEK 293 cell membranes; details: for Ki: Ki from competition binding, 125I-ABA, HEK 293 cell membranes; for A3/A2A: selectivity ratio A3 over A2A
T1 sequence (P0DMS8 1-318): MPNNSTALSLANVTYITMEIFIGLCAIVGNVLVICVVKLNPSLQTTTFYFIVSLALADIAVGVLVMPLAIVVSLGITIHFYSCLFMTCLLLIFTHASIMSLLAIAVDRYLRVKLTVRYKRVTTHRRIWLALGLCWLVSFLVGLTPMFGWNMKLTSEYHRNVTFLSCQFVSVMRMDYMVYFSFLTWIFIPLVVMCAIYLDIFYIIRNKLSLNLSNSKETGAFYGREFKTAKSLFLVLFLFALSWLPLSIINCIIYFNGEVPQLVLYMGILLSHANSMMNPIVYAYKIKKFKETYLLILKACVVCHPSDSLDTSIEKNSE

[3] = target: T2, human A1 AR (Homo sapiens, UniProt P30542); experiment: Radioligand competition binding (125I-ABA) to human A1 AR in CHO K1 cell membranes; details: for Ki: Ki from competition binding, 125I-ABA, CHO K1 cell membranes; for A1/A2A: selectivity ratio A1 over A2A
T2 sequence (P30542 1-326): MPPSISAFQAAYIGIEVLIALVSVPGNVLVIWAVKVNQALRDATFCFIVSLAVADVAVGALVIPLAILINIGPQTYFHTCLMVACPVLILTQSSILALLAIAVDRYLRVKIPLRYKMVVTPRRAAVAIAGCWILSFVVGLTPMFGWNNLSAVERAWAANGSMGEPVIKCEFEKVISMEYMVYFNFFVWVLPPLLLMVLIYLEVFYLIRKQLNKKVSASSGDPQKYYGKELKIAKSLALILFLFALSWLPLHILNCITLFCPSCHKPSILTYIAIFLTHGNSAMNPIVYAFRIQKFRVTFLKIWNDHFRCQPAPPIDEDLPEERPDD

[4] = tested on: human neutrophils; experiment: Human neutrophil oxidative activity, luminol-enhanced chemiluminescence; assay type: cell-based; details: for EC50: Homo sapiens, Neutrophil, read-out: PMN oxid (-log EC50) (converted); for EC50 / PMN oxid (-log EC50): human neutrophil experiment w/o Rolipram; for PMN oxid + roli (-log EC50): human neutrophil experiment w/Rolipram
Description: Chemiluminescence Methods: Lumninol enhanced chemiluminescence, a measure of neutrophil oxidative activity, is dependent upon both superoxide production and mobilization of the granule enzyme myeloperoxidase. The light is emitted from unstable high-energy oxygen species such as hypochlorous acid and singlet oxygen generated by activated neutrophils.
The plate was incubated 5 min (37 C) and then fMLP (50 l in HA; final concentration […]) was added to all wells.
Data are presented as peak chemiluminescence as percent of activity in the absence of an adenosine agonist. The EC50 was determined using PRISM software. All compounds were tested with PMNs from three separate donors.
Lummol-enhanced chemiluminescence, a measure of neutrophil oxidative activity, is dependent upon both superoxide production and mobilization of the lysosomal granule enzyme myeloperoxidase. The light is emitted from unstable high-energy oxygen species generated by activated neutrophils. Purified neutrophils (5-10×10^5/ml) were incubated in Hanks balanced salt solution containing 0.1% human serum albumin (1 ml) with the tested A2A agonist with or without rolipram and with or without tumor necrosis factor-alpha (1 U/ml) for 30 minutes at 37° C. in a shaking water bath. […] Chemiluminescence is reported as relative peak light emitted (=height of the curve) compared to samples with tumor necrosis factor-alpha and without agonist or rolipram.

Row | Ki ([1]; A2A ± SEM) [nM] | Ki ([2]; A3 ± SEM) [nM] | A3/A2A [2] | Ki ([3]; A1 ± SEM) [nM] | A1/A2A [3] | EC50 [4] [nM] | PMN oxid + roli (-log EC50) [4] | Ki ([1]; read-out: A2A ± SEM) [nM] | Ki ([2]; read-out: A3 ± SEM) [nM] | Ki ([3]; read-out: A1 ± SEM) [nM] | PMN oxid (-log EC50) [4] | Compound
1 | 1.5 ± 0.01 | 76 ± 6 | 50.3 | 19 ± 1 | 12.6 | 32.4 | 8.7 | – | – | – | – | CCNC(=O)[C@H]1O[C@@H](n2cnc3c(N)nc(C#CCC4CCC(CO)CC4)nc32)C(O)C1O (stereo in doubt) [ATL-2037, 5-{6-Amino-2-[3-(4-hydroxymethyl-cyclohexyl)-prop-1-ynyl]-purin-9-yl}-3,4-dihydroxytetrahydrofuran-2-carboxylic acid ethylamide]
2 | – | – | 9.3 | – | 4.2 | – | 8.08 | 3.4 ± 0.3 | 31.6 ± 26.5 | 14.2 ± 1.08 | 7.22 | CCNC(=O)C1OC(n2cnc3c(N)nc(C#CC4(N)CCCCC4)nc32)C(O)C1O (stereo not shown) [JR-3205]
3 | 3.6 ± 0.5 | 28 ± 13 | 7.8 | 55 ± 13 | 15.3 | 102 | 8.29 | – | – | – | – | CCNC(=O)[C@H]1O[C@@H](n2cnc3c(N)nc(C#CCC4CCC(C(=O)NC)CC4)nc32)C(O)C1O (stereo in doubt) [JR-3065, 5-{6-Amino-2-[3-(4-methylcarbamoyl-cyclohexyl)-prop-1-ynyl]-purin-9-yl}-3,4-dihydroxytetrahydrofuran-2-carboxylic acid ethylamide]
4 | 1.1 ± 0.2 | 231 ± 91 | 210.0 | 71 ± 14 | 64.5 | 3.09 | 9.46 | – | – | – | – | CCNC(=O)[C@H]1O[C@@H](n2cnc3c(N)nc(C#CCC4CCC(COC(C)=O)CC4)nc32)C(O)C1O (stereo in doubt) [ATL-193, Acetic acid 4-{3-[6-amino-9-(5-ethylcarbamoyl-3,4-dihydroxytetrahydrofuran-2-yl)-9H-purin-2-yl]-prop-2-ynyl}-cyclohexylmethyl ester]
5 | 2.25 ± 0.35 | 3.34 ± 0.48 | 1.5 | 12 ± 5 | 5.3 | – | 8.91 | – | – | – | 7.81 | CCNC(=O)[C@H]1O[C@@H](n2cnc3c(N)nc(C#CC4(O)CCCCNC4=O)nc32)C(O)C1O (single isomer, unassigned) [JR-3243B, 5-[6-Amino-2-(3-hydroxy-2-oxo-azepan-3-ylethynyl)purin-9-yl]-3,4-dihydroxytetrahydrofuran-2-carboxylic acid ethylamide]
6 | 4 ± 0.2 | 212 ± 95 | 53.0 | 121 ± 44 | 30.3 | – | 8.2 | – | – | – | 6.83 | CCNC(=O)[C@H]1O[C@@H](n2cnc3c(N)nc(C#CCC4CCC(C)(C(=O)OC)CC4)nc32)C(O)C1O (single isomer, unassigned) [JR-3067B, 4-{3-[6-Amino-9-(5-ethylcarbamoyl-3,4-dihydroxytetrahydrofuran-2-yl)-9H-purin-2-yl]-prop-2-ynyl}-1-methyl-cyclohexanecarboxylic acid methyl ester]
7 | 2.2 ± 0.2 | 17.8 ± 5.5 | 8.1 | 20.3 ± 4.5 | 9.2 | 46.8 | 8.51 | – | – | – | – | CCNC(=O)[C@H]1O[C@@H](n2cnc3c(N)nc(C#CCC4CCC(CC)CC4)nc32)C(O)C1O (stereo in doubt) [JR-3087, 5-{6-Amino-2-[3-(4-ethyl-cyclohexyl)-prop-1-ynyl]-purin-9-yl}-3,4-dihydroxytetrahydrofuran-2-carboxylic acid ethylamide]
8 | – | – | 6.6 | – | 1.4 | – | 9.34 | 0.6 ± 0.06 | 3.9 ± 1.5 | 0.9 ± 0.05 | 8.43 | CCNC(=O)C1OC(n2cnc3c(N)nc(C#CC(O)C4CCCCC4)nc32)C(O)C1O (single isomer, unassigned) [JR-3159A]
9 | 1.43 ± 0.23 | 86 | 60.1 | 167 | 116.4 | 3.55 | – | – | – | – | – | CCNC(=O)[C@H]1O[C@@H](n2cnc3c(N)nc(C#CCC4CCN(C(=O)OC(C)C)CC4)nc32)C(O)C1O (stereo in doubt) [JR-4009, 4-{3-[6-Amino-9-(5-ethylcarbamoyl-3,4-dihydroxytetrahydrofuran-2-yl)-9H-purin-2-yl]-prop-2-ynyl}-piperidine-1-carboxylic acid isopropyl ester]
10 | – | – | 15.2 | – | 8.3 | – | 7.6 | 5.7 ± 1.8 | 86.7 ± 3.75 | 47.3 ± 11.6 | 6.4 | CCNC(=O)C1OC(n2cnc3c(N)nc(C#CCC4CCNCC4)nc32)C(O)C1O (stereo not shown) [JR-3261]
11 | 4.1 ± 0.9 | 93 ± 21 | 22.7 | 113 ± 11 | 27.6 | 45.7 | 8.68 | – | – | – | – | CCNC(=O)C1CCC(CC#Cc2nc(N)c3ncn([C@@H]4O[C@H](C(=O)NCC)C(O)C4O)c3n2)CC1 (stereo in doubt) [JR-3037, 5-{6-Amino-2-[3-(4-ethylcarbamoyl-cyclohexyl)-prop-1-ynyl]-purin-9-yl}-3,4-dihydroxytetrahydrofuran-2-carboxylic acid ethylamide]
12 | 0.7 ± 0.07 | 7.5 ± 4.5 | 11.2 | 15.5 ± 0.7 | 23.1 | – | 9.45 | – | – | – | 8.5 | CCNC(=O)[C@H]1O[C@@H](n2cnc3c(N)nc(C#CC4(O)CCCCC4C)nc32)C(O)C1O (single isomer, unassigned) [JR-3177B, 5-[6-Amino-2-(1-hydroxy-2-methyl-cyclohexylethynyl)-purin-9-yl]-3,4-dihydroxytetrahydrofuran-2-carboxylic acid ethylamide]
13 | 29.6 ± 1.2 | 29 ± 10 | 1.0 | 189 ± 19 | 6.4 | 912 | 7.72 | – | – | – | – | CCNC(=O)[C@H]1O[C@@H](n2cnc3c(N)nc(C#CCC4CCC(C(=O)O)CC4)nc32)C(O)C1O (stereo in doubt) [ATL-146a, 4-{3-[6-Amino-9-(5-ethylcarbamoyl-3,4-dihydroxytetrahydrofuran-2-yl)-9H-purin-2-yl]-prop-2-ynyl}-cyclohexanecarboxylic acid]
14 | 3.8 ± 2 | 61 ± 6 | 16.3 | 14 ± 0.8 | 3.7 | 42.7 | 8.66 | – | – | – | – | CCNC(=O)[C@H]1O[C@@H](n2cnc3c(N)nc(C#CCC4CCC(CN(C)C)CC4)nc32)C(O)C1O (stereo in doubt) [JR-3023, 5-{6-Amino-2-[3-(4-dimethylaminomethyl-cyclohexyl)-prop-1-ynyl]-purin-9-yl}-3,4-dihydroxytetrahydrofuran-2-carboxylic acid ethylamide]
15 | 2.36 ± 0.5 | 38 | 16.1 | 9.15 ± 1.35 | 3.9 | 6.46 | – | – | – | – | – | CCNC(=O)[C@H]1O[C@@H](n2cnc3c(N)nc(C#CCN4CCN(C(=O)OC(C)(C)C)CC4)nc32)C(O)C1O (stereo in doubt) [JR-3281, 4-{3-[6-Amino-9-(5-ethylcarbamoyl-3,4-dihydroxytetrahydrofuran-2-yl)-9H-purin-2-yl]-prop-2-ynyl}-piperazine-1-carboxylic acid tert-butyl ester]
